Measured values from patent US20250051338A1, “TYK2 DEGRADERS AND USES THEREOF” (Kymera Therapeutics, Inc., priority 2021, published 2025).

Columns and labels:
Format in all cases: cell-based
[1] = biological target: T1, TYK2 (Homo sapiens, UniProt P29597); assay: TYK2 degradation MSD assay in EBV-B cells; set-up: endogenous in cells; host or cells: EBV-B cells; details: 4 to 24 hours incubation, read-out: TYK2 MSD DC50 rating in EBV-B
Outline: (§1)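 Cells (0.4 million per well) were treated with a 9-point, 1:3 compound series from a top concentration of 1 to 10 μM for 4 to 24 hours at 37° C, then lysed in RIPA with protease/phosphatase inhibitors. Remaining TYK2 was quantified by sandwich MSD immunoassay; DC50 came from four-parameter nonlinear fits.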

[2] = biological target: T1, TYK2; assay: TYK2 degradation MSD assay in OCI-LY10 cells; set-up: endogenous in cells; host or cells: EBV-B cells; details: 4 to 24 hours incubation, read-out: TYK2 MSD DC50 rating in OCI-LY10
Outline: as §1

[3] = biological target: T1, TYK2; assay: TYK2 degradation MSD assay in human PBMC cells; set-up: endogenous in cells; host or cells: human PBMC; details: 4 to 24 hours incubation, read-out: TYK2 MSD DC50 rating in human PBMC
Outline: as §1

T1 sequence (P29597 whole entry): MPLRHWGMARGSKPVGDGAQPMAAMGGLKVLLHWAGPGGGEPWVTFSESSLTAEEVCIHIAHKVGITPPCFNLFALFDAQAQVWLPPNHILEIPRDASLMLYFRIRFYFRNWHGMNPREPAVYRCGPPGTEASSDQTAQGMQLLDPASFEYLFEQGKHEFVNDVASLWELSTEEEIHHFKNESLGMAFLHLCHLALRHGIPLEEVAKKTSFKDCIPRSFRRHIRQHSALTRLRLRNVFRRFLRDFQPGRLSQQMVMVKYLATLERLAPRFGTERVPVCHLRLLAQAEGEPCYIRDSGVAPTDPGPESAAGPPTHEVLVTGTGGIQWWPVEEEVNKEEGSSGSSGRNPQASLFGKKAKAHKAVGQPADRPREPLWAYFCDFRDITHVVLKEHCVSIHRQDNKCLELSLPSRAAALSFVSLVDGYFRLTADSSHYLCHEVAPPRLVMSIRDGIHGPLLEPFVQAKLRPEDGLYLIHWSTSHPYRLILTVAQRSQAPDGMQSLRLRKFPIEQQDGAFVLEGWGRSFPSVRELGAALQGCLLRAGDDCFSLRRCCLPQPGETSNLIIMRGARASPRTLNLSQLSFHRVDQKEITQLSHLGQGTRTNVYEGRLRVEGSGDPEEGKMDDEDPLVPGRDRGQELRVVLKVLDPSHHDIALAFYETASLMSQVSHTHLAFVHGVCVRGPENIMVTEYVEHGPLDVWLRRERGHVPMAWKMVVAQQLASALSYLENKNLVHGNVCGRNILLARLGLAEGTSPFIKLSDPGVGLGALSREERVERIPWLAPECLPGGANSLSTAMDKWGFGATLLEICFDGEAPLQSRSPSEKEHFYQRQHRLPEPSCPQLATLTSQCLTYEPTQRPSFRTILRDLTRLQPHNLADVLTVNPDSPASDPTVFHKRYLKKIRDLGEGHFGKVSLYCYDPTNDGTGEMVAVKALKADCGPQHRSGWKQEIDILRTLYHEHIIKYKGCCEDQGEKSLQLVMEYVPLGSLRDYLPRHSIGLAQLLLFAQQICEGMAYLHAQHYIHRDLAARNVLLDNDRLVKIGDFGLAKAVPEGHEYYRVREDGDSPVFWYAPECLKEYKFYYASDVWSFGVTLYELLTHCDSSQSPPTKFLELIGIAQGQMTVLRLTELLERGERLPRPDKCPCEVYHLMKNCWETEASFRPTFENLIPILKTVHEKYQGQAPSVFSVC

Row | DC50 [1] [nM] | DC50 [2] [nM] | DC50 [3] [nM] | Compound
1 | > 100 | > 100 | 1 to 10 | CNC(=O)c1cnc(NC(=O)NCCCCCCCCCc2ccc3c(c2)n(C)c(=O)n3C2CCC(=O)NC2=O)cc1Nc1cccc(-c2ncc(F)cn2)c1OC (stereo not drawn) [Example K186]
2 | > 100 | > 100 | 1 to 10 | CNC(=O)c1cnc(NC(=O)NCCCCCCCCc2ccc3c(c2)n(C)c(=O)n3C2CCC(=O)NC2=O)cc1Nc1cccc(-c2ncc(F)cn2)c1OC (stereo not drawn) [Example K187]
3 | > 100 | > 100 | < 1 | CNC(=O)c1cnc(NC(=O)NCCCCCCCc2ccc3c(c2)n(C)c(=O)n3C2CCC(=O)NC2=O)cc1Nc1cccc(-c2ncc(F)cn2)c1OC (stereo not drawn) [Example K188]
4 | > 100 | 10 to 100 | 10 to 100 | CNC(=O)c1cnc(Nc2ccc(C(=O)NCCCCc3cccc4c3n(C)c(=O)n4C3CCC(=O)NC3=O)cn2)cc1Nc1cccn(C)c1=O (stereo not drawn) [Example K189]
5 | 10 to 100 | > 100 | 1 to 10 | CNC(=O)c1cnc(Nc2ccc(C(=O)NCCCCc3cccc4c3n(C)c(=O)n4C3CCC(=O)NC3=O)cn2)cc1Nc1ccccc1S(C)(=O)=O (stereo not drawn) [Example K190]
6 | > 100 | 1 to 10 | 1 to 10 | CNC(=O)c1cnc(Nc2ccc(C(=O)NCCCCc3cccc4c3n(C)c(=O)n4C3CCC(=O)NC3=O)cn2)cc1Nc1ccccc1OC (stereo not drawn) [Example K191]
7 | > 100 | 1 to 10 | 1 to 10 | CNC(=O)c1cnc(Nc2ccc(C(=O)NCCCCc3cccc4c3n(C)c(=O)n4C3CCC(=O)NC3=O)cn2)cc1Nc1ccccc1 (stereo not drawn) [Example K192]
8 | 1 to 10 | > 100 | 1 to 10 | CNC(=O)c1cnc(Nc2cc(C(=O)NCCCCCCc3cccc4c3n(C)c(=O)n4C3CCC(=O)NC3=O)ccn2)cc1Nc1cccc(-c2ncc(F)cn2)c1OC (stereo not drawn) [Example K193]
9 | > 100 | > 100 | < 1 | CNC(=O)c1cnc(Nc2ccc(CN3CCN(Cc4ccc5c(c4)n(C)c(=O)n5C4CCC(=O)NC4=O)CC3)cn2)cc1Nc1cccc(-c2ncc(F)cn2)c1OC (stereo not drawn) [Example K194]
10 | 1 to 10 | > 100 | > 100 | CNC(=O)c1cnc(Nc2ccc(C(=O)N(C)C3CCN(c4cccc5c4n(C)c(=O)n5C4CCC(=O)NC4=O)CC3)cn2)cc1Nc1ccccc1OC (stereo not drawn) [Example K195]
11 | > 100 | < 1 | < 1 | CNC(=O)c1cnc(Nc2ccc(N3CCN(c4ccc5c(c4)n(C)c(=O)n5C4CCC(=O)NC4=O)CC3)cn2)cc1Nc1cccc(-c2ncc(F)cn2)c1OC (stereo not drawn) [Example K196]
12 | > 100 | > 100 | < 1 | CNC(=O)c1cnc(Nc2ccc(C3CCN(Cc4ccc5c(c4)n(C)c(=O)n5C4CCC(=O)NC4=O)CC3)cn2)cc1Nc1cccc(-c2ncc(F)cn2)c1OC (stereo not drawn) [Example K197]
13 | > 100 | > 100 | < 1 | CNC(=O)c1cnc(Nc2ccc(CN3CC(c4cccc5c4n(C)c(=O)n5C4CCC(=O)NC4=O)C3)cn2)cc1Nc1cccc(-c2ncc(F)cn2)c1OC (stereo not drawn) [Example K198]
14 | > 100 | > 100 | 1 to 10 | CNC(=O)c1cnc(Nc2ccc(CN3CC(c4ccc5c(c4)n(C)c(=O)n5C4CCC(=O)NC4=O)C3)cn2)cc1Nc1cccc(-c2ncc(F)cn2)c1OC (stereo not drawn) [Example K199]
15 | > 100 | > 100 | > 100 | Cn1c(=O)n(C2CCC(=O)NC2=O)c2ccc(CCOCCOCCNc3cc(Nc4cccn(-c5ccccn5)c4=O)nn4c(C(=O)N[C@@H]5C[C@@H]5F)cnc34)cc21 (stereo partly drawn) [Example K201]
16 | > 100 | > 100 | > 100 | Cn1c(=O)n(C2CCC(=O)NC2=O)c2ccc(CCOCCOCCOCCOCCNc3cc(Nc4cccn(-c5ccccn5)c4=O)nn4c(C(=O)NC5C[C@@H]5F)cnc34)cc21 (stereo partly drawn) [Example K202]
17 | > 100 | > 100 | > 100 | Cn1c(=O)n(C2CCC(=O)NC2=O)c2ccc(CCCCNc3cc(Nc4cccn(-c5ccccn5)c4=O)nn4c(C(=O)N[C@@H]5C[C@@H]5F)cnc34)cc21 (stereo partly drawn) [Example K204]
18 | > 100 | > 100 | > 100 | Cn1c(=O)n(C2CCC(=O)NC2=O)c2cccc(CCCCNc3cc(Nc4cccn(-c5ccccn5)c4=O)nn4c(C(=O)N[C@@H]5C[C@@H]5F)cnc34)c21 (stereo partly drawn) [Example K205]
19 | > 100 | > 100 | > 100 | Cn1c(=O)n(C2CCC(=O)NC2=O)c2cccc(CCCCCCNc3cc(Nc4cccn(-c5ccccn5)c4=O)nn4c(C(=O)N[C@@H]5C[C@@H]5F)cnc34)c21 (stereo partly drawn) [Example K206]

Row | DC50 [1] [nM] | DC50 [2] [nM] | DC50 [3] [nM] | Compound
20 | > 100 | > 100 | > 100 | Cn1c(=O)n(C2CCC(=O)NC2=O)c2ccc(CCCCCCNc3cc(Nc4cccn(-c5ccccn5)c4=O)nn4c(C(=O)N[C@@H]5C[C@@H]5F)cnc34)cc21 (stereo partly drawn) [Example K207]
21 | > 100 | > 100 | > 100 | Cn1c(=O)n(C2CCC(=O)NC2=O)c2ccc(CCCCCCCCNc3cc(Nc4cccn(-c5ccccn5)c4=O)nn4c(C(=O)N[C@@H]5C[C@@H]5F)cnc34)cc21 (stereo partly drawn) [Example K208]
22 | > 100 | > 100 | > 100 | Cn1c(=O)n(C2CCC(=O)NC2=O)c2cccc(CCCCCCCCNc3cc(Nc4cccn(-c5ccccn5)c4=O)nn4c(C(=O)N[C@@H]5C[C@@H]5F)cnc34)c21 (stereo partly drawn) [Example K209]
23 | > 100 | > 100 | > 100 | Cn1c(=O)n(C2CCC(=O)NC2=O)c2ccc(CCCCCCCCCCNc3cc(Nc4cccn(-c5ccccn5)c4=O)nn4c(C(=O)N[C@@H]5C[C@@H]5F)cnc34)cc21 (stereo partly drawn) [Example K210]
24 | > 100 | > 100 | > 100 | Cn1c(=O)n(C2CCC(=O)NC2=O)c2ccc(CCCCCCCCCCCCNc3cc(Nc4cccn(-c5ccccn5)c4=O)nn4c(C(=O)N[C@@H]5C[C@@H]5F)cnc34)cc21 (stereo partly drawn) [Example K211]
25 | > 100 | > 100 | > 100 | Cn1c(=O)n(C2CCC(=O)NC2=O)c2cccc(CCOCCOCCNc3cc(Nc4cccn(-c5ccccn5)c4=O)nn4c(C(=O)N[C@@H]5C[C@@H]5F)cnc34)c21 (stereo partly drawn) [Example K212]
26 | > 100 | > 100 | > 100 | Cn1c(=O)n(C2CCC(=O)NC2=O)c2cccc(CCOCCOCCOCCOCCOCCOCCNc3cc(Nc4cccn(-c5ccccn5)c4=O)nn4c(C(=O)N[C@@H]5C[C@@H]5F)cnc34)c21 (stereo partly drawn) [Example K213]
27 | > 100 | > 100 | > 100 | Cn1c(=O)n(C2CCC(=O)NC2=O)c2cccc(CCOCCOCCOCCOCCNc3cc(Nc4cccn(-c5ccccn5)c4=O)nn4c(C(=O)N[C@@H]5C[C@@H]5F)cnc34)c21 (stereo partly drawn) [Example K214]
28 | > 100 | > 100 | 10 to 100 | CNc1cc(Nc2cccn(-c3ccc(C(=O)NCCOCCOCCOCCOCCOCCOCCc4ccc5c(c4)n(C)c(=O)n5C4CCC(=O)NC4=O)cn3)c2=O)nn2c(C(=O)N[C@@H]3C[C@@H]3F)cnc12 (stereo partly drawn) [Example K215]
29 | > 100 | > 100 | 1 to 10 | CNc1cc(Nc2cccn(-c3ccc(C(=O)NCCOCCOCCc4cccc5c4n(C)c(=O)n5C4CCC(=O)NC4=O)cn3)c2=O)nn2c(C(=O)N[C@@H]3C[C@@H]3F)cnc12 (stereo partly drawn) [Example K216]
30 | 10 to 100 | > 100 | 10 to 100 | CNc1cc(Nc2cccn(-c3ccc(C(=O)NCCOCCOCCOCCOCCOCCOCCc4cccc5c4n(C)c(=O)n5C4CCC(=O)NC4=O)cn3)c2=O)nn2c(C(=O)N[C@@H]3C[C@@H]3F)cnc12 (stereo partly drawn) [Example K217]
31 | > 100 | > 100 | 10 to 100 | CNc1cc(Nc2cccn(-c3ccc(C(=O)NCCOCCOCCOCCOCCc4cccc5c4n(C)c(=O)n5C4CCC(=O)NC4=O)cn3)c2=O)nn2c(C(=O)N[C@@H]3C[C@@H]3F)cnc12 (stereo partly drawn) [Example K218]
32 | > 100 | > 100 | 1 to 10 | CNc1cc(Nc2cccn(-c3cccc(C(=O)NCCCCc4ccc5c(c4)n(C)c(=O)n5C4CCC(=O)NC4=O)c3)c2=O)nn2c(C(=O)N[C@@H]3C[C@@H]3F)cnc12 (stereo partly drawn) [Example K219]
33 | > 100 | > 100 | > 100 | CNc1cc(Nc2cccn(-c3cccc(C(=O)NCCCCc4cccc5c4n(C)c(=O)n5C4CCC(=O)NC4=O)c3)c2=O)nn2c(C(=O)N[C@@H]3C[C@@H]3F)cnc12 (stereo partly drawn) [Example K220]
34 | > 100 | > 100 | > 100 | CNc1cc(Nc2cccn(-c3cccc(C(=O)NCCCCCCc4ccc5c(c4)n(C)c(=O)n5C4CCC(=O)NC4=O)c3)c2=O)nn2c(C(=O)N[C@@H]3C[C@@H]3F)cnc12 (stereo partly drawn) [Example K221]
35 | > 100 | > 100 | 1 to 10 | CNc1cc(Nc2cccn(-c3cccc(C(=O)NCCCCCCc4cccc5c4n(C)c(=O)n5C4CCC(=O)NC4=O)c3)c2=O)nn2c(C(=O)N[C@@H]3C[C@@H]3F)cnc12 (stereo partly drawn) [Example K222]
36 | > 100 | > 100 | 1 to 10 | CNc1cc(Nc2cccn(-c3cccc(C(=O)NCCCCCCCCc4ccc5c(c4)n(C)c(=O)n5C4CCC(=O)NC4=O)c3)c2=O)nn2c(C(=O)N[C@@H]3C[C@@H]3F)cnc12 (stereo partly drawn) [Example K223]
37 | > 100 | > 100 | 10 to 100 | CNc1cc(Nc2cccn(-c3cccc(C(=O)NCCCCCCCCc4cccc5c4n(C)c(=O)n5C4CCC(=O)NC4=O)c3)c2=O)nn2c(C(=O)N[C@@H]3C[C@@H]3F)cnc12 (stereo partly drawn) [Example K224]
